The text below walks through data of patent US20260258035A1, “FIVE-MEMBERED AND SIX-MEMBERED NITROGEN-CONTAINING COMPOUND, AND INTERMEDIATE, PREPARATION METHOD AND USE THEREOF” (HANGZHOU SYNRX THERAPEUTICS BIOMEDICAL TECHNOLOGY CO., LTD., priority 2022, published 2026).

Data set [1] has as its system HCC1806. The data set can be described thus: Cell viability assay (CellTiter-Glo). It counts as cell-based, Human. The note with it: HCC1806, 7 days, CellTiter-Glo, read-out: IC50 (nM) in cell viability assay. On the technique in general: In ATP-based viability assays light output follows the ATP content of the culture.
The nature of data set [2]: Solubility assay (FaSSGF / FaSSIF). The format is physicochemical. Particulars: kinetic from dmso stock, 2 h at 25° C. Here is the method: 1). Preparation of Solutions:
The FaSSGF solution was prepared as follows: • a) preparation of FaSSGF buffer: dissolve 2.0 g of NaCl as the raw material in about 0.9 L of purified water; • b) adjustment of the pH of the buffer: adjust the pH of the buffer to 1.6 with 1N HCL, and replenish the buffer with purified water to the volume of 1 L; and • c) preparation of FaSSGF solution by addition of FaSSGF powder: add 0.06 g of the FaSSGF powder to about 0.5 L of the buffer, stir until the powder was completely dissolved, and make up for the volume (1 L) with the buffer.
The FaSSIF solution was prepared as follows: • a) preparation of FaSSIF buffer: dissolve 0.42 g of NaOH, 3.44 g of anhydrous NaH2PO4, and 6.19 g of NaCl as raw materials in about 0.9 L of purified water; • b) adjustment the pH of the buffer: adjust the pH of the buffer to 6.5 with 1 N NaOH or 1 N HCL, and replenish the buffer with purified water to the volume of 1 L; and • c) preparation of FaSSIF solution by addition of FaSSIF powder: add 2.24 g of the FaSSIF powder to about 0.5 L of the buffer, stir until the powder was completely dissolved, and make up for the volume (1 L) with the buffer.
2). Preparation of the Solution of Control Compound:
The control compound was weighed and dissolved in DMSO to 10 mM to obtain a stock solution.
3) Preparation of the Solution of Compound to be Tested:
The compound to be tested was formulated into a 10 mM DMSO stock solution.
4) Preparation of Internal Standard Solution:
a) The internal standard was weighed and dissolved in DMSO to 10 mM to obtain an internal standard stock solution (ISTD stock solution).
b) The internal standard stock solution was diluted to 500 nM (Tolbutamide) with an ACN:methano mixture (volume ratio: 1:1) to obtain a quenching solution.
a) The FaSSGF solution at pH 1.6 and the FaSSIF solution at pH 6.5 were pre-warmed; and then, the compound was injected into the buffer.
Once done, the samples were centrifuged at 12,000 rpm for 10 min, and the supernatant was transferred to a new tube. The supernatant was diluted 10-fold and 100-fold with the FaSSGF solution at pH 1.6 or the FaSSIIF solution at pH 6.5. 20 μL of each sample (1×, 10×, 100× and standard curve) was added to 500 μL of the IS solution. The resulting mixture was vortexed vigorously for 1 min and centrifuged at 4,500 rpm for 15 min at 4° C. 150 μL of the supernatant was transferred for LC-MS/MS sample analysis.

The target in data set [3] is PARG (Homo sapiens, UniProt Q86W56). Kind of data set: Biochemical assay (PARG, TFMU-ADPr substrate).
For data set [4], the system named is Human breast squamous carcinoma cells HCC1806. The data set can be described thus: Cell function assay (In-Cell Western, PAR/pADPr after MMS). It counts as cell-based. The note with it: read-out: IC50 (nM) in cell function assay. Put shortly:
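HCC1806 cells adhered 24 h at 37 °C, 5% CO2, then were pretreated 1 h with compound (30000 nM down to 1 nM, plus 0 nM) or DMSO. MMS was then added at 0.5 mM final for 1 h before In-Cell Western detection of PAR/pADPr.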

Setting [5] is: fassgf or other biorelevant, FaSSGF solution pH 1.6, 100 μM from DMSO stock, read-out: FaSSGF solubility.
The mark [6] stands for this setting: FaSSIF solution pH 6.5, 100 μM from DMSO stock, read-out: FaSSIF solubility.
[7] abbreviates: HCC1806, In-Cell Western, MMS treatment.
Where [8] appears, read: HCC1806, compound 1 h then 0.5 mM MMS 1 h, PAR/pADPr antibody, In-Cell Western.
The mark [9] stands for this setting: 4 nM PARG, 66.2 uM TFMU-ADPr, 3 min at room temperature.

≈ marks a conversion by molar mass, not a printed value. Read-outs that look alike come from different tables or passages of the source.

Chain of PARG (Q86W56 whole entry): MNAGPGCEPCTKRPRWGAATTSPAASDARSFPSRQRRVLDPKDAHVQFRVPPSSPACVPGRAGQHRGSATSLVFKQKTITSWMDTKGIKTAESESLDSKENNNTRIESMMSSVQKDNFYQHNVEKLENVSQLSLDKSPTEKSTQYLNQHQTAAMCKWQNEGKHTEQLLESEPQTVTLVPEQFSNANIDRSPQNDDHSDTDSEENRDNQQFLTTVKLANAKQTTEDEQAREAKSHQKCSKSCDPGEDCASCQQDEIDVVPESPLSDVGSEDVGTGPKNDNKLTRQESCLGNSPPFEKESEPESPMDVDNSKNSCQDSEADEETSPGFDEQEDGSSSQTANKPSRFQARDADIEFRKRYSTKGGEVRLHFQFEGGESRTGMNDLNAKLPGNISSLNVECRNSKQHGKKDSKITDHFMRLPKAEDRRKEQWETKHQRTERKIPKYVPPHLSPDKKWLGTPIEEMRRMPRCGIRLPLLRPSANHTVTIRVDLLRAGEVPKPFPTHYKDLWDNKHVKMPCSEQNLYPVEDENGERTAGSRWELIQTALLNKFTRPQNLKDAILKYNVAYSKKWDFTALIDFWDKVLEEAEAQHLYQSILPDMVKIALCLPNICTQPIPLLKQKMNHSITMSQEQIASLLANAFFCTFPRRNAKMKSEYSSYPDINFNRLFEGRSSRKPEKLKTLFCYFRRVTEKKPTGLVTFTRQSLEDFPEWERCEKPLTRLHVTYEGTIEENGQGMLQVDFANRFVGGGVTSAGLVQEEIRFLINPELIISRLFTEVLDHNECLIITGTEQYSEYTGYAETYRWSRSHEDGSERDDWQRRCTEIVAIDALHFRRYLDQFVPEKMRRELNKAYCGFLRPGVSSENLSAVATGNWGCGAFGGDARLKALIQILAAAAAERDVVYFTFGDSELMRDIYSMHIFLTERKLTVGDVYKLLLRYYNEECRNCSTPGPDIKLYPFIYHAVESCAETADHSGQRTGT

Turning to `CC(C)C(=O)N1CCN(c2cc(S(=O)(=O)NC3(C)COC3)cn3c(-c4nnc(C(F)F)s4)nc(Cl)c23)C[C@H]1C` [Example 124, (R)-1-chloro-3-(5-(difluoromethyl)-1,3,4-thiadiazol-2-yl)-8-(4-isobutyryl-3-methylpiperazin-1-yl)-N-(3-methyloxetan-3-yl)imidazo[1,5-a]pyridine-6-sulfonamide], the IC50 (usually the concentration that inhibits the measured activity by half) in data set [1] (Homo sapiens, HCC1806, 168 h) is 759 nM; in data set [3] (PARG, TFMU-ADPr substrate), 2.54 nM. For the same compound, the solubility (in general, the concentration that dissolves in the medium under given conditions) at 2 h worked out at 38.5 µM (≈ 23.3 µg/mL) in data set [2] (setting [5]) and 88.2 µM (≈ 53.3 µg/mL) in data set [2] (setting [6]).
`[2H]c1nc(-c2nnc(C(F)F)s2)n2cc(S(=O)(=O)NC3(C)COC3)cc(N3CCN(C(=O)C(C)C)CC3)c12` [Example 159, 3-(5-(difluoromethyl)-1,3,4-thiadiazol-2-yl)-8-(4-isobutyrylpiperazin-1-yl)-N-(3-methyloxetan-3-yl)imidazo[1,5-a]pyridine-6-sulfonamide-1-d]: the IC50 in data set [4] (setting [7]) was 1.12 nM; in data set [4] (setting [8]), less than 100 nM; in data set [3] (setting [9]) it was less than 100 nM; in data set [3] (PARG, TFMU-ADPr substrate), 0.46 nM. The values for the solubility at 2 h in data set [2] (setting [5]) and in data set [2] (setting [6]) were 5.19 µM (≈ 2.89 µg/mL) and 17.4 µM (≈ 9.69 µg/mL), respectively.
Turning to `CN(C)C(=O)N1CCN(c2cc(S(=O)(=O)NC3(C#N)CC3)cn3c(-c4nnc(C(F)(F)F)s4)ncc23)CC1` [Example 227, 4-(6-(N-(1-cyanocyclopropyl)sulfamoyl)-3-(5-(trifluoromethyl)-1,3,4-thiadiazol-2-yl)imidazo[1,5-a]pyridin-8-yl)-N,N-dimethylpiperazine-1-carboxamide], the IC50 came out at 300 nM in data set [1] (Homo sapiens, HCC1806, 168 h) and 5.01 nM in data set [3] (PARG, TFMU-ADPr substrate). In addition, the solubility at 2 h in data set [2] (setting [5]) came to 73.8 µM (≈ 42 µg/mL); in data set [2] (setting [6]), 82.4 µM (≈ 46.9 µg/mL).
For `CC1(NS(=O)(=O)c2cc(N3CCN(C(=O)C4CC4)CC3)c3cnc(-c4nnc(C(F)(F)F)s4)n3c2)COC1` [Example 175, 8-(4-(cyclopropanecarbonyl)piperazin-1-yl)-N-(3-methyloxetan-3-yl)-3-(5-(trifluoromethyl)-1,3,4-thiadiazol-2-yl)imidazo[1,5-a]pyridine-6-sulfonamide], in that order: 565 nM, 18.2 nM, 21.5 µM (≈ 12.3 µg/mL) and 97.2 µM (≈ 55.6 µg/mL).
As to `CC(C)C(=O)N1CCN(c2cc(S(=O)(=O)NC3(CF)COC3)cn3c(-c4nnc(C(F)F)s4)ncc23)CC1` [Example 60, 3-(5-(difluoromethyl)-1,3,4-thiadiazol-2-yl)-N-(3-(fluoromethyl)oxetan-3-yl)-8-(4-isobutyrylpiperazin-1-yl)imidazo[1,5-a]pyridine-6-sulfonamide], the IC50 in data set [4] (setting [7]) is 2.85 nM; in data set [4] (setting [8]) it was greater than 1000 nM; in data set [1], 438 nM; in data set [1] (Homo sapiens, HCC1806, 168 h), less than 500 nM; in data set [3] (setting [9]), less than 100 nM; in data set [3] (PARG, TFMU-ADPr substrate), 0.19 nM. The values for the solubility at 2 h in data set [2] (setting [5]) and in data set [2] (setting [6]) were 3.83 µM (≈ 2.2 µg/mL) and 10 µM (≈ 5.74 µg/mL), respectively.
`CC1(C(=O)N2CCN(c3cc(S(=O)(=O)NC4(C#N)CC4)cn4c(-c5nnc(C(F)(F)F)s5)ncc34)CC2)CCCO1` (centres unmarked) [Example 298, N-(1-cyanocyclopropyl)-8-(4-(2-methyltetrahydrofuran-2-carbonyl)piperazin-1-yl)-3-(5-(trifluoromethyl)-1,3,4-thiadiazol-2-yl)imidazo[1,5-a]pyridine-6-sulfonamide]: the IC50 in data set [1] (Homo sapiens, HCC1806, 168 h) worked out at 175 nM; in data set [3] (PARG, TFMU-ADPr substrate) it was 19.1 nM. In addition, the solubility at 2 h in data set [2] (setting [5]) was greater than 100 µM; in data set [2] (setting [6]) it was 97.7 µM (≈ 59.7 µg/mL).
Consider `C[C@@H]1CN(c2cc(S(=O)(=O)NC3(CF)CC3)cn3c(-c4nnc(C(F)F)s4)nnc23)CCN1C(=O)C1(C)CC1` [Example 120, (R)-3-(5-(difluoromethyl)-1,3,4-thiadiazol-2-yl)-N-(1-(fluoromethyl)cyclopropyl)-8-(3-methyl-4-(1-methylcyclopropane-1-carbonyl)piperazin-1-yl)-[1,2,4]triazolo[4,3-a]pyridine-6-sulfonamide], for which the half-inhibitory concentration (IC50) is 2.28 nM in data set [4] (setting [7]); less than 100 nM in data set [4] (setting [8]); less than 100 nM in data set [3] (setting [9]); 1.49 nM in data set [3] (PARG, TFMU-ADPr substrate). Also, the solubility at 2 h in data set [2] (setting [5]) is 81.8 µM (≈ 47.8 µg/mL); in data set [2] (setting [6]), 140 µM (≈ 81.9 µg/mL).
On to `CC1(O)CCN(c2cc(S(=O)(=O)NC3(CF)CC3)cn3c(-c4nnc(C(F)F)s4)nnc23)CC1` [Example 107, 3-(5-(difluoromethyl)-1,3,4-thiadiazol-2-yl)-N-(1-(fluoromethyl)cyclopropyl)-8-(4-hydroxy-4-methylpiperidin-1-yl)-[1,2,4]triazolo[4,3-a]pyridine-6-sulfonamide], for which the IC50 was 74 nM in data set [4] (setting [7]); less than 100 nM in data set [4] (setting [8]); 513 nM in data set [1]; 500 to 5000 nM in data set [1] (Homo sapiens, HCC1806, 168 h); less than 100 nM in data set [3] (setting [9]); 2.04 nM in data set [3] (PARG, TFMU-ADPr substrate). Further, the solubility at 2 h in data set [2] (setting [5]) was determined as 15.9 µM (≈ 8.23 µg/mL); in data set [2] (setting [6]) it was 24.2 µM (≈ 12.5 µg/mL).
